Source: patent publication US20250127906A1, “SMALL-MOLECULE DEGRADERS OF CDK8 AND CDK19” (University of South Carolina, priority 2021, published 2025)

Assays:
[1] = Serum drug concentrations in CD-1 mice (LCMSMS); assay type: in vivo; settings: female CD-1 mice, i.p. 15 mg/kg, 15 min and 1 hr
Experimental: For preliminary evaluation of the bioavailability of the PROTACs, IA7882 and IA7886 were administered to female CD-1 mice via intraperitoneal (i.p.) injection at the dose of 15 mg/kg. Drug concentrations were measured by LCMSMS analysis of serum samples collected at 15 min and 1 hr time point.

[2] = test system: CDK8/19-regulated genes; assay: QPCR of CDK8/19-regulated genes in HEK-293 wild-type and CDK8/19 double-knockout cells; assay type: cell-based, human; settings: for effect on expression of CDK8/19-regulated genes: 200 nM, 3-day treatment
Experimental: CDK8/19 act as transcriptional regulators, and therefore we tested the effects of 3-day treatment with 200 nM PROTAC IA7886 along with 200 nM CDK8/19 kinase inhibitor BI-1347 on a series of CDK8/19-regulated genes, using QPCR.
We have also compared the stability of transcriptional changes induced by a PROTAC and by a kinase inhibitor. In the experiment shown in FIG. 10A, HEK-293 cells were treated with 200 nM of BI-1347 or IA7886 for 3 days, and then the inhibitors were washed off and the restoration of transcriptional changes was monitored 24 hrs and 48 hrs after wash-off.

[3] = test system: Jurkat cells; assay: Wash-off growth study in Jurkat cells; assay type: cell-based, human; settings: pre-treated 200 nM for 8 days, then drug-free vs drug-containing media for 8 days
Experimental: We also compared the stability of short-term growth inhibition induced by a PROTAC and a kinase inhibitor in a wash-off study in Jurkat cells. In the experiment shown in FIG. 11C, Jurkat cells were pre-treated with 200 nM BI-1347 or IA7886 for 8 days before removal of drug-containing media and further cultured in either drug-containing (200 nM) or drug-free media for 8 days before counting cell numbers. Removal of BI-1347 led to 7.1 fold increase of the cell number while removal of IA7886 increased the cell number only 1.8 fold (FIG. 11C).

[4] = biological target: CDK19 (Homo sapiens, UniProt Q9BWU1); assay: CDK19 degradation in other human cell lines (22Rv1, MV4-11, HAP-1, HTB-185, SAOS2, SJSA-1); assay type: cell-based; set-up: endogenous in cells; settings: 24-hr treatment
Excerpt: FIG. 5 illustrates the effects of the novel PROTACs HP8580, IA7843 and IA7886 on CDK8 and CDK19 degradation in other human cell lines, including 22Rv1 prostate cancer (expressing more CDK19 than CDK8), MV4-11 (AML) and HAP-1 (CML) leukemia cell lines, HTB-185 medulloblastoma, and SAOS2 and SJSA-1 osteosarcoma (the latter expressing only CDK19 but not CDK8).

[5] = test system: RPMI 8226 cells; assay: Concentration dependence of RPMI 8226 growth inhibition; assay type: cell-based; settings: Homo sapiens, 96 h; RPMI 8226, 4-day growth inhibition
[6] = biological target: T1, CDK8 (Homo sapiens, UniProt P49336); assay: CDK8 degradation in HEK-293 cells with CRISPR knockout of CCNC; assay type: cell-based; set-up: a derivative of HEK-293cells with CRISPR-mediated knockout of CCNC; endogenous in cells; host or cells: HEK-293 with CRISPR knockout of CCNC; settings: HEK-293 CCNC-knockout cells, 24 hr treatment
Excerpt: This cell line, however, is unique in lacking Cyclin C (CCNC), the binding partner of CDK8/19. To test if the absence of CDK8-bound CCNC was responsible for the loss of IA7843 CDK8-degrading activity, we have tested the effect of IA7843 on a derivative of HEK-293cells with CRISPR-mediated knockout of CCNC.
Target sequence in this assay (P49336 whole entry): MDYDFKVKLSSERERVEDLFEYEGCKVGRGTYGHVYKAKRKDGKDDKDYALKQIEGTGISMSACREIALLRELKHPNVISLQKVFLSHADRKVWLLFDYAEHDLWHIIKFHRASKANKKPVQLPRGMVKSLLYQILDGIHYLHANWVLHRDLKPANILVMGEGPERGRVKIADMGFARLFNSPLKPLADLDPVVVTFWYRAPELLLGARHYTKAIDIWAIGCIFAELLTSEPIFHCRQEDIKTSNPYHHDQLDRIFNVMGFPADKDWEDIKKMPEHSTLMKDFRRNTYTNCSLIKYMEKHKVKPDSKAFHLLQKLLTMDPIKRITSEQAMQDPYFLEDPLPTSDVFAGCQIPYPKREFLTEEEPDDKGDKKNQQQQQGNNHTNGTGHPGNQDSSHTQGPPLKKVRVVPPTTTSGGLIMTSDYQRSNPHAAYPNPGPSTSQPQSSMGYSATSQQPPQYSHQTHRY

[7] = biological target: T2, CDK8 (Canis lupus familiaris, UniProt A0A8I3PYQ8); assay: CDK8 degradation in canine Abrams osteosarcoma cells; assay type: cell-based
T2 construct: endogenous in cells; host or cells: Abrams (canine osteosarcoma)
T2 sequence (A0A8I3PYQ8 1-464): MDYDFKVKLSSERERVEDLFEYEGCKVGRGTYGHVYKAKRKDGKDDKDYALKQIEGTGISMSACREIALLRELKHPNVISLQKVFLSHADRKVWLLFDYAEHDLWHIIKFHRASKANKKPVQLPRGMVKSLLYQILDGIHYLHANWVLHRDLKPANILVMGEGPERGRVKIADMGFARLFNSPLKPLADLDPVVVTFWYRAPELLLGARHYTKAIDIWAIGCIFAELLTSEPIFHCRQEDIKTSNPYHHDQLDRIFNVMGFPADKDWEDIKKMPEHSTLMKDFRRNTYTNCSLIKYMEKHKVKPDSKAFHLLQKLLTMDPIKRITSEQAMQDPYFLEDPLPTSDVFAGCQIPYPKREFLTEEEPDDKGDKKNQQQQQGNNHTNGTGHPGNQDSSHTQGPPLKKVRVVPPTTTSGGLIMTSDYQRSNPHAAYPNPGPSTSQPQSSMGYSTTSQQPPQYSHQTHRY
Excerpt: Both the extent and the kinetics of CDK8 degradation were similar between two cell lines, with the degradation reaching maximum at about 8 hrs of PROTAC treatment.

[8] = biological target: T1, CDK8; assay: CDK8 degradation in HEK-293 cells (Western blot, normalized by GAPDH); assay type: cell-based; set-up: endogenous in cells; host or cells: HEK-293
How it was run: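 HEK-293 cells were treated for 24 h with or without compound, at 1 μM or 0.3 μM for single-point testing. RIPA lysates were immunoblotted for CDK8, and densitometry gave levels normalized to GAPDH. DC50 is the concentration that reduces CDK8 to half its level in untreated cells.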
Target sequence in this assay (P49336 whole entry): as the sequence (P49336 whole entry) above
Target sequence in this assay (P24863 whole entry partner): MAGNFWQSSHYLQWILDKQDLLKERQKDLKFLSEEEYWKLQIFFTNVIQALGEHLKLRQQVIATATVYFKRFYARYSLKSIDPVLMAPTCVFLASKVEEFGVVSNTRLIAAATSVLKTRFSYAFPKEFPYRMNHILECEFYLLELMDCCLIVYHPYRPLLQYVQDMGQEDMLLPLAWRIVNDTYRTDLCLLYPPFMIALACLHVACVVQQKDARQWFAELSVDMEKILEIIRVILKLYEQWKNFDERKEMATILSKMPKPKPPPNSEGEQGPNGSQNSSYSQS

CDK19, sequence (Q9BWU1 whole entry): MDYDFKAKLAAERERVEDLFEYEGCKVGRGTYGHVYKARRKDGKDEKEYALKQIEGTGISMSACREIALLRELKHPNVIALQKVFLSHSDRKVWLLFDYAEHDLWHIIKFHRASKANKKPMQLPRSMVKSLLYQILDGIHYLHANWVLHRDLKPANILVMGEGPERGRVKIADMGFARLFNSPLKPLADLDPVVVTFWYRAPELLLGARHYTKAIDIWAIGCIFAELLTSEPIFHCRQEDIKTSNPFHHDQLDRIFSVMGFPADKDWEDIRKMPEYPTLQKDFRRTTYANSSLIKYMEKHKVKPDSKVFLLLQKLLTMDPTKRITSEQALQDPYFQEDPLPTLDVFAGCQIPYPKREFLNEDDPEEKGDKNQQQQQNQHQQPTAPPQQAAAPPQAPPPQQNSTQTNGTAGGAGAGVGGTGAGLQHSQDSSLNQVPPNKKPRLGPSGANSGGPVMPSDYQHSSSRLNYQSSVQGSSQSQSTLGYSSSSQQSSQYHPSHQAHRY
CDK19, sequence (P24863 whole entry partner): as the sequence (P24863 whole entry partner) above

SMILES: O=C(CCCNc1cccc2c1C(=O)N(C1CCC(=O)NC1=O)C2=O)NCCCCCCCCCCC(=O)N1CCN(C(=O)Cn2cc(-c3ccc(-c4cncc5ccccc45)cc3)cn2)CC1 (stereo not shown) [IA7886, 4-[[2-(2,6-dioxo-3-piperidyl)-1,3-dioxo-isoindolin-4-yl]amino]-N-[11-[4-[2-[4-[4-(4-isoquinolyl)phenyl]pyrazol-1-yl]acetyl]piperazin-1-yl]-11-oxo-undecyl]butanamide]
- serum drug concentrations [1]: readily measurable and were higher for IA7882 than for IA7886
- effect on expression of CDK8/19-regulated genes ([2]; CDK8/19 double-knockout (dKO) 293 cells): had no effect in dKO cells
- stability of transcriptional changes after wash-off ([2]; HEK-293, 200 nM for 3 days, then 24 hrs and 48 hrs after wash-off): maintained even 48 hrs after wash-off
- effect on expression of CDK8/19-regulated genes ([2]; wild-type HEK-293 cells): had similar effects on the expression of the tested genes
- increase of the cell number upon removal of drug [3]: 1.8 fold
- CDK19 degradation (in words) [4]: significantly degraded CDK8 and CDK19 in all the tested cell lines
- IC50 [5]: 24 nM
- CDK8 degradation (in words) [6]: efficiently degraded CDK8 and CDK19
- CDK8 degradation (in words) [7]: induce CDK8 degradation in both cell lines
- % CDK8 remaining ([8]; HEK-293 cells, 24 hours, tested at 1 μM): 19%
- CDK8 degradation (in words) ([8]; HEK-293 cells, Western blot): most potent CDK8 degrader in this set
- DC50 ([8]; HEK-293 cells, concentration degrading CDK8 to half of level in untreated cells): 2.8 nM
- time at which CDK8 degradation reaches maximum ([8]; human 293 cells, 100 nM): about 8 hrs
